Measured values: patent US7524849B2, “5-arylpyrimidines as anticancer agents” (Wyeth Holdings Corporation, priority 2003, dated 2009)
Marks after values point to notes of the source that are not given here.

How the values were obtained:
[1] = system: U87-MG Human Glioblastoma; assay: Human tumor xenograft test, U87-MG glioblastoma; format: in vivo, athymic mice; conditions: for T/C on day 0 / T/C on day 3 / T/C on day 7 / T/C on day 10: schedule day 1, U87-MG
[2] = system: DLD1 Human Colon Carcinoma; assay: Human tumor xenograft test, DLD1 colon carcinoma; format: in vivo, athymic mice; conditions: for T/C on day 0 / T/C on day 7 / T/C on day 14: schedule days 1, 7, DLD1
[3] = system: highly purified tubulin (tubulin heterodimer); assay: Competitive binding test, [3H]vinblastine; set-up: species or system bovine; conditions: competitor 100 μM, [3H]vinblastine 100 nM, percent of binding to control without competitor
Experimental: (§1) Medium is RPMI-1640 with L-glutamine, supplemented with 10% heat-inactivated fetal calf serum, 100 units/mL penicillin, and 100 μg/mL streptomycin (Gibco, Grand Island, N.Y.). Microtubule-associated protein (MAP)-rich tubulin, containing about 70% tubulin and 30% MAPs (#ML113), and highly purified tubulin (>99% pure, #TL238), both from bovine brain, are obtained from Cytoskeleton, Inc., Denver, Colo. PEM buffer (80 mM piperazine-N,N′-bis[2-ethanesulfonic acid], pH 6.9, 1 mM ethylene glycol-bis(β-aminoethyl ether)-N,N,N′,N′-tetraacetic acid, 1 mM magnesium chloride) and guanosine 5′-triphosphate (GTP) are also obtained from Cytoskeleton. […] [^3H]vinblastine, specific activity 9.60 Ci/mmol and MicroSpin G-50 columns are obtained from Amersham Biosciences (Piscataway, N.J.). […] Other reagents are obtained from Sigma (St. Louis, Mo.).
(§2) The binding of examples of this invention to highly purified tubulin is studied by competitive inhibition methods.
These solutions are incubated at 24° for 1 hr and then applied to MicroSpin G-50 columns which are centrifuged for 2 min at 3000 rpm in an Eppendorf 5415C microfuge. An aliquot of each column effluent (containing tubulin and bound radioligand) is mixed with scintillation fluid and counted in a liquid scintillation spectrometer. […] Quadruplicates are averaged, and the ability of the competitor to inhibit the binding of the radioligand is expressed as a percentage of control binding in the absence of any competitor.

[4] = system: polymerized tubulin (microtubules); assay: Competitive binding test, [3H]paclitaxel; set-up: species or system bovine; conditions: competitor 20 μM (5 μM for unlabeled paclitaxel)
Experimental: as §1, §2
The reactions are then centrifuged at top speed in an Eppendorf 5415C microfuge for 20 min at room temperature in order to pellet the microtubule protein. Triplicate aliquots of each supernatant are mixed with scintillation fluid and counted in a liquid scintillation spectrometer. […] The ability of each competitor to inhibit radioligand binding to pelleted protein is expressed as a percent of controls without any competitor.

[5] = U87-MG glioblastoma, intravenously on day 1 with 5 mg/kg

For CNCCCOc1cc(F)c(-c2c(Cl)nc(-c3cnccn3)nc2N[C@@H](C)C(F)(F)F)c(F)c1.Cl [Example 24a, 6-Chloro-5-{2,6-difluoro-4-[3-(methylamino)propoxy]phenyl}-2-pyrazin-2-yl-N-[(1S)-2,2,2-trifluoro-1-methylethyl]pyrimidin-4-amine hygrogen chloride], the “T/C on day 0” value ([1]; 1 mg/kg IV) was 1.03, the “T/C on day 3” value ([1]; 1 mg/kg IV) was 0.71* and the “T/C on day 7” value ([1]; 1 mg/kg IV) was 0.75. For the same compound, the “T/C on day 10” value ([1]; 1 mg/kg IV) was 0.86, the “T/C on day 0” value ([1]; 5 mg/kg IV) was 1.04 and the “T/C on day 3” value ([1]; 5 mg/kg IV) was 0.41**. For the same compound, the “T/C on day 7” value ([1]; 5 mg/kg IV) was 0.21**, the “T/C on day 10” value ([1]; 5 mg/kg IV) was 0.17** and the “T/C on day 0” value ([1]; 10 mg/kg IV) was 1.04. The “T/C on day 3” value ([1]; 10 mg/kg IV) was 0.31**, the “T/C on day 7” value ([1]; 10 mg/kg IV) was “Toxic” and the compound toxicity [1, 5] was “some compound toxicity is also observed”. For the same compound, the growth of xenografts [1, 5] was “inhibits the growth”, the “T/C on day 0” value ([2]; 5 mg/kg IV) was 1.0 and the “T/C on day 7” value ([2]; 5 mg/kg IV) was 0.24**. The “T/C on day 14” value ([2]; 5 mg/kg IV) was “Toxic”, the “T/C on day 0” value ([2]; 5 mg/kg PO) was 1.0 and the “T/C on day 7” value ([2]; 5 mg/kg PO) was 1.07. For the same compound, the “T/C on day 14” value ([2]; 5 mg/kg PO) was 0.85, the “T/C on day 0” value ([2]; 10 mg/kg IV) was 1.0 and the “T/C on day 7” value ([2]; 10 mg/kg IV) was “Toxic”. The “T/C on day 0” value ([2]; 10 mg/kg PO) was 1.0, the “T/C on day 7” value ([2]; 10 mg/kg PO) was 0.82 and the “T/C on day 14” value ([2]; 10 mg/kg PO) was 0.28**. The growth of tumor ([2]; DLD1 colon carcinoma, orally on days 1 and 7 at 10 mg/kg/dose) was “inhibits the growth”.

In the case of CC[C@]1(O)C[C@H]2CN(CCc3c([nH]c4ccccc34)[C@@](C(=O)OC)(c3cc4c(cc3OC)N(C=O)[C@H]3[C@@](O)(C(=O)OC)[C@H](OC(C)=O)[C@]5(CC)C=CCN6CC[C@]43[C@@H]65)C2)C1 [Vincristine, reference compound], the “[3H]Vinblastine binding, Mean” value [3] is reported as 5 % of control and the “[3H]Vinblastine binding, Mean” value ([3]; listed as vincristine) is reported as “inhibits [^3H]vinblastine binding”.

For CNCCCOc1cc(F)c(-c2c(Cl)nc(-c3ccccn3)nc2N[C@@H](C)C(F)(F)F)c(F)c1.Cl [Example 29a, 6-Chloro-5-{2,6-difluoro-4-[3-(methylamino)propoxy]phenyl}-2-pyridin-2-yl-N-[(S)-2,2,2-trifluoro-1-methylethyl]pyrimidin-4-amine hydrogen chloride], the “T/C on day 0” value ([2]; 1 mg/kg IV) was 1.0, the “T/C on day 7” value ([2]; 1 mg/kg IV) was 0.63* and the “T/C on day 14” value ([2]; 1 mg/kg IV) was 0.71*. The “T/C on day 0” value ([2]; 1 mg/kg PO) was 1.0, the “T/C on day 7” value ([2]; 1 mg/kg PO) was 1.40 and the “T/C on day 14” value ([2]; 1 mg/kg PO) was 1.02. For the same compound, the “T/C on day 0” value ([2]; 5 mg/kg IV) was 1.0, the “T/C on day 7” value ([2]; 5 mg/kg IV) was 0.22** and the “T/C on day 14” value ([2]; 5 mg/kg IV) was “Toxic”. For the same compound, the “T/C on day 0” value ([2]; 5 mg/kg PO) was 1.0, the “T/C on day 7” value ([2]; 5 mg/kg PO) was 0.79 and the “T/C on day 14” value ([2]; 5 mg/kg PO) was 0.59*.

For CC(=O)O[C@H]1C(=O)[C@@]2(C)[C@H]([C@H](OC(=O)c3ccccc3)[C@]3(O)C[C@H](OC(=O)[C@H](O)[C@@H](NC(=O)c4ccccc4)c4ccccc4)C(C)=C1C3(C)C)[C@]1(OC(C)=O)CO[C@@H]1C[C@@H]2O [Paclitaxel, reference compound], the “[3H]Vinblastine binding, Mean” value [3] was 92 % of control and the “[3H]Paclitaxel binding, Mean” value [4] was 35 % of control.
